Data reported in article PMC4822253, “Inhibition of BMP and of TGFβ receptors downregulates expression of XIAP and TAK1 leading to lung cancer cell death” (Molecular Cancer, 2016).
Where two headings read alike, the source gives them in different places.

Experiments:
A549 cells [1] = experiment: Western blot analysis of cells in culture; format: cell-based
Protocol: (§1) Total cellular protein was prepared using RIPA buffer containing a protease inhibitor cocktail and protein concentration was measured using the BCA assay as described. In brief, protein was analyzed by SDS-PAGE, transferred to nitrocellulose (Schleicher and Schuell, Keene, NH). After blocking, the blots were incubated overnight at 4 °C with the appropriate primary antibody in Tris-buffered saline with 1 % Tween (TBST) and 5 % BSA. Secondary antibodies were applied for 1 h at room temperature. Specific proteins were detected using the enhanced chemiluminescence system (Amersham, Arlington Heights, IL). The primary antibodies that were used were rabbit monoclonal anti-pSmad 1/5, rabbit monoclonal anti-pSmad2, rabbit monoclonal anti-Smad2, rabbit monoclonal anti-pTAK1, rabbit monoclonal XIAP, rabbit anti-monoclonal p-p65, rabbit monoclonal anti-activated caspase-3, rabbit polyclonal anti-BMPRII, and rabbit monoclonal anti-EGR-1 (Cell signaling Technology, Danvers MA), Rabbit monoclonal anti-TAK1 (Invitrogen, Grand Island NY), rabbit anti-actin, an affinity isolated antigen specific antibody (Sigma, Saint Louis, MO), rabbit monoclonal anti-Id1 and rabbit monoclonal anti-Id3 (Calbioreagents, San Mateo, CA), rabbit polyclonal anti-GAPDH (Sigma, St. Louis, MO) and rabbit polyclonal pMEK-1/2 (Cell Signaling, Danvers MA).

H1299 cells [2] = experiment: Cell death assay (ethidium bromide uptake); format: cell-based
Protocol: (§2) Cells were plated in 6 well plates with 10^6 cells per well. Three days following treatment with inhibitor(s) and/or transfection the adherent and floating cells were harvested and incubated with 0.1 mg/ml of ethidium bromide. Cells that die by necrosis or apoptosis lose membrane integrity and take up ethidium bromide. Immediately after staining approximately 100 cells were counted and the percentage of cells that took up ethidium bromide was determined.

A549 cells [3] = experiment: Cell death assay (ethidium bromide uptake); format: cell-based; conditions: after 3 days
Protocol: as §2

[4] = tested on: lung cancer cell lines H157, A549, H1299, H727, U1752; experiment: Cell counts in panel of lung cancer cell lines; format: cell-based; conditions: 1 μM; 7 days; percent of vehicle control
Protocol: (§3) Cells were plated into 6 well plates at 10^5 cells per well and treated with 1 μM DMSO or antagonist for 7 days. The cells were detached with trypsin, stained with trypan blue, and the number of live cells counted using a hemocytometer.
Additional file 1: Figure S1. […] Data is depicted as percent of vehicle control. Experiments were performed 3 times. (TIF 749 kb) Additional file 2: Figure S2. […] Non-specific band from the same Western blot was used as a loading control. Experiments performed at least 3 times. (TIF 2680 kb) Additional file 3: Figure S3. Pharmacokinetics of DMH2. […] (TIF 1187 kb) Additional file 4: Figure S4. […] (A-B) Western blot of tumor xenografts treated with BMP inhibitors for 24 h and 9 days. […] (E-G) Data depict the mean as the percent of control. Experiments were performed at least 3 times. (TIF 9413 kb) Additional file 5: Figure S5. […] The data represents the mean of at least 4 experiments. (TIF 359 kb) Additional file 6: Figure S6. […] The studies represent the mean of at least 3 independent experiments. […] (TIF 2411 kb)

[5] = tested on: lung cancer cell lines H157, A549, H1299, H727, U1752; experiment: Western blot of Id1 in panel of lung cancer cell lines; format: cell-based; conditions: 1 μM; 48 h; all cell lines of the panel
Protocol: as §1
Additional file 1: Figure S1. […]

Alk2/ACVRR1 [6] = target: T1, Alk2/ACVRR1 (Homo sapiens, UniProt Q04771); conditions: read-out: IC50 Alk2/ACVRR1; kinase activity; ATP 10 Micromolar; 10-point, duplicate
T1 sequence (Q04771 21-509): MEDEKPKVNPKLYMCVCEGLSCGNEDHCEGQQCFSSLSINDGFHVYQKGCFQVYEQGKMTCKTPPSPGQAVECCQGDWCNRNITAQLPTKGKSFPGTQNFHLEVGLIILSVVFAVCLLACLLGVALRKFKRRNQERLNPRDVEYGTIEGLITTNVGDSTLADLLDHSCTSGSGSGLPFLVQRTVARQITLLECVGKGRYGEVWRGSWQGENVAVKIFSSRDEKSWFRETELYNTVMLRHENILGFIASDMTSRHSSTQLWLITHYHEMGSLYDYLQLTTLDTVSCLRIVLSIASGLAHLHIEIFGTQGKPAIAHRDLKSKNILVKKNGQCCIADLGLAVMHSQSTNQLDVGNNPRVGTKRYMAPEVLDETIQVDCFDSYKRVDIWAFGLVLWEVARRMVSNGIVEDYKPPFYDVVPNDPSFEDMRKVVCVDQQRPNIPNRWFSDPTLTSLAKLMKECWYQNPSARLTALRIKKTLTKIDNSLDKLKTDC
Protocol: (§4) This was a 10-point assay starting from 100 μM to 100 nM performed in duplicate. The ATP concentration was 10 Micromolar.

Alk6 = Alk6 (Homo sapiens, UniProt O00238); conditions: read-out: IC50 Alk6/BMPRII; kinase activity; ATP 10 Micromolar; 10-point, duplicate
Chain of Alk6 (O00238 149-502 limits assumed): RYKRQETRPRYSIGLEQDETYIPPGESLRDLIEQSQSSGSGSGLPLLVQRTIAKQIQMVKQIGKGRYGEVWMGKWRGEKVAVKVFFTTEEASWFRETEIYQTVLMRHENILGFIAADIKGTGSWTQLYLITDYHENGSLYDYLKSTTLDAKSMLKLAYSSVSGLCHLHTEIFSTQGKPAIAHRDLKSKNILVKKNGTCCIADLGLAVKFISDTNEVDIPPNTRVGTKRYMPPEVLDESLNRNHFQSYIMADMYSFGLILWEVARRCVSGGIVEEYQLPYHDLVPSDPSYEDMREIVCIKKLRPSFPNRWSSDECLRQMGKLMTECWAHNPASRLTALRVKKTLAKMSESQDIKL
Protocol: as §4

Alk3/BMPR1A = Alk3/BMPR1A (Homo sapiens, UniProt P36894); conditions: read-out: IC50 Alk3/BMPR1A; kinase activity; ATP 10 Micromolar; 10-point, duplicate
Chain of Alk3/BMPR1A (P36894 24-532): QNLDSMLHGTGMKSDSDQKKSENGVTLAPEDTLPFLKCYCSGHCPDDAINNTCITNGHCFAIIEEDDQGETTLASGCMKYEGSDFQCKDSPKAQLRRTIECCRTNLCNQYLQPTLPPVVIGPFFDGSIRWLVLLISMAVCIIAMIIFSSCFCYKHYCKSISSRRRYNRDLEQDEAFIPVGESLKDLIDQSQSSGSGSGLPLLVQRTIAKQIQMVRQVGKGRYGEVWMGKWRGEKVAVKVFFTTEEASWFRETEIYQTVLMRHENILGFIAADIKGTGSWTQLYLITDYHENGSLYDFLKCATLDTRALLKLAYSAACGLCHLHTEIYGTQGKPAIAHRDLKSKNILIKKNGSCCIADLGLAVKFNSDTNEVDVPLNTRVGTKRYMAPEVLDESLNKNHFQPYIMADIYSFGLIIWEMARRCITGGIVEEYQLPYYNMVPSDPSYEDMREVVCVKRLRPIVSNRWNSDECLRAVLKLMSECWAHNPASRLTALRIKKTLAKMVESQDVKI
Protocol: as §4

Alk2/ACVRR1 [7] = target: T1, Alk2/ACVRR1; parameters: purchased Reaction Biology Corporation (Malvern, PA); conditions: reported; read-out: IC50 for the BMP type I receptor Alk2; cited from earlier work
H1299 cells [8] = experiment: Cell counts (live cells, trypan blue); format: cell-based
Protocol: as §3

A549 cells [9] = experiment: Cell counts (live cells, trypan blue); format: cell-based; conditions: compound alone, 7 days
Protocol: as §3

Pharmacokinetics in mice = format: in vivo; conditions: BALB/c mice; 2 mg/kg tail vein injection and 10 mg/kg p.o. study
Protocol: Three mice at each time point were dosed with a 2 mg/kg tail vein injection and 10 mg/kg p.o. Blood samples were taken 0.08, 0.25, 0.5, 1, 2, 4, 8, 12, and 24 h (i.v.) and 0.25, 0.5, 1, 2, 4, 6, 8, 12, and 24 h (p.o.). Plasma half-life, clearance, and volume of distribution were then determined.

c1ccc2c(-c3cnn4cc(-c5ccc(OCCN6CCOCC6)cc5)cnc34)ccnc2c1 [DMH2]
low dose that can cause an increase in the expression of Id1 (A549 cells [1]; 24 and 48 h, suppression at higher concentrations): 0.5 µM
expression of activated caspase-3 (A549 cells [1]; 48 h): induced
expression of phosphorylated MEK-1/2 (A549 cells [1]; 48 h): increase
expression of Smad2 (A549 cells [1]; 3 days): very significant decrease
expression of TAK1 and phosphorylation of NF-kappa B subunit p65 (A549 cells [1]; 3 days): decrease
expression of XIAP (A549 cells [1]; after 3 days): significant decrease
phosphorylation of TAK1 and Smad2 (A549 cells [1]; increasing doses, 48 h): increase in phosphorylation of TAK1and Smad2 at lower doses, which tapered off at higher doses
cell death compared to DMH1 and LDN (H1299 cells [2]; H1299 cells): significantly greater
cell death in cells expressing mutant XIAP (H1299 cells [2]; H1299 cells stably expressing mutant XIAP, 3 days): resistant to cell death
cell death (H1299 cells [2]; H1299 cells, after 3 days): significant cells death
cell death (A549 cells [3]): significant cells death
growth (cell counts) [4]: inhibited growth in all of the cell lines
expression of Id1 [5]: decreased
IC50 (Alk2/ACVRR1 [6]): 23 nM
IC50 (Alk6): 43 nM
IC50 (Alk3/BMPR1A): 92 nM
IC50 (Alk2/ACVRR1 [7]): 42.8 nM
growth suppression compared to DMH1 and LDN (H1299 cells [8]): significantly greater growth suppression
growth (cell counts) (H1299 cells [8]; compound alone, 7 days): significant growth suppression
growth (cell counts) (A549 cells [9]): growth suppression
elimination half-life (Pharmacokinetics in mice): 57 min
systemic plasma clearance (Pharmacokinetics in mice): 68.45 mL/min/kg
